Reference: ChEMBL document CHEMBL6121048 (J Med Chem, 2025)
Calls of active or inactive are those of the source. No cut-off for these calls is given here.

How the values were obtained:
[1] = biological target: T1, Glutamate NMDA receptor; Grin1/Grin2c (Rattus norvegicus) (UniProt P35439+Q00961); test: Agonist activity at recombinant rat GluN1/GluN2C NMDA receptor expressed in xenopus laevis oocytes by measuring maximum response by two-electrode voltage-clamp method relative to glycine; type: cell-based; conditions: filed as agonist
[2] = biological target: T2, Glutamate NMDA receptor; Grin1/Grin2b (Rattus norvegicus) (UniProt P35439+Q00960); test: Agonist activity at recombinant rat GluN1/GluN2B NMDA receptor expressed in xenopus laevis oocytes at 30 uM by two-electrode voltage-clamp method relative to control; type: cell-based
[3] = biological target: T3, Glutamate NMDA receptor; Grin1/Grin2a (Rattus norvegicus) (UniProt P35439+Q00959); test: Partial agonist activity at recombinant rat GluN1/GluN2A NMDA receptor expressed in xenopus laevis oocytes by measuring maximum response by two-electrode voltage-clamp method relative to glycine; type: cell-based; conditions: filed as partial agonist
[4] = biological target: T4, Glutamate NMDA receptor; Grin1/Grin2c (Rattus norvegicus, UniProt P35439+Q00961); test: Agonist activity at recombinant rat GluN1/GluN2C NMDA receptor expressed in xenopus laevis oocytes in presence of L-glutamate by two-electrode voltage-clamp method; type: cell-based
[5] = biological target: T5, Ionotropic glutamate receptor NMDA 1/2D (Rattus norvegicus) (UniProt P35439+Q62645); test: Partial agonist activity at recombinant rat GluN1/GluN2D NMDA receptor expressed in xenopus laevis oocytes by measuring maximum response by two-electrode voltage-clamp method relative to glycine; type: cell-based
[6] = biological target: T6, Glutamate NMDA receptor; Grin1/Grin2a (Rattus norvegicus, UniProt P35439+Q00959); test: Partial agonist activity at recombinant rat GluN1/GluN2A NMDA receptor expressed in xenopus laevis oocytes in presence of L-glutamate by two-electrode voltage-clamp method; type: cell-based
[7] = biological target: T7, Ionotropic glutamate receptor NMDA 1/2D (Rattus norvegicus, UniProt P35439+Q62645); test: Partial agonist activity at recombinant rat GluN1/GluN2D NMDA receptor expressed in xenopus laevis oocytes in presence of L-glutamate by two-electrode voltage-clamp method; type: cell-based
[8] = species on record: Rattus norvegicus; test: Selectivity ratio of EC50 for partial agonist activity at recombinant rat GluN1/GluN2A NMDA receptor expressed in xenopus laevis oocytes to EC50 for agonist activity at recombinant rat GluN1/GluN2C NMDA receptor expressed in xenopus laevis oocytes; type: cell-based
[9] = Efflux ratio of apparent permeability across basolateral to apical over apical to basolateral side in dog MDR1-deficient MDCK cells expressing human MDR1 at 3 uM by LC-MS/MS analysis; type: ADME, cell-based, Canis lupus familiaris
[10] = Apparent permeability across basolateral to apical side in dog MDR1-deficient MDCK cells expressing human MDR1 at 3 uM by LC-MS/MS analysis; type: ADME, cell-based, Canis lupus familiaris
[11] = biological target: T2, Glutamate NMDA receptor; Grin1/Grin2b (Rattus norvegicus); test: Agonist activity at recombinant rat GluN1/GluN2B NMDA receptor expressed in xenopus laevis oocytes at 1 uM by two-electrode voltage-clamp method relative to control; type: cell-based
[12] = Apparent permeability across apical to basolateral side in dog MDR1-deficient MDCK cells expressing human MDR1 at 3 uM by LC-MS/MS analysis; type: ADME, cell-based, Canis lupus familiaris
[13] = species on record: Rattus norvegicus; test: Selectivity ratio of EC50 for partial agonist activity at recombinant rat GluN1/GluN2D NMDA receptor expressed in xenopus laevis oocytes to EC50 for agonist activity at recombinant rat GluN1/GluN2C NMDA receptor expressed in xenopus laevis oocytes; type: cell-based
[14] = Metabolic stability in human liver microsomes assessed as half life at 1 uM incubated for 5 mins in presence of NADPH by LC-MS/MS analysis; type: ADME, Microsome
[15] = biological target: T6, Glutamate NMDA receptor; Grin1/Grin2a; test: Inhibition of recombinant rat GluN1/GluN2A NMDA receptor expressed in xenopus laevis oocytes in presence of glycine and L-glutamate by two-electrode voltage-clamp method; type: cell-based
[16] = biological target: Glutamate NMDA receptor; Grin1/Grin2b (Rattus norvegicus, UniProt P35439+Q00960); test: Inhibition of recombinant rat GluN1/GluN2B NMDA receptor expressed in xenopus laevis oocytes in presence of glycine and L-glutamate by two-electrode voltage-clamp method; type: cell-based
[17] = biological target: T4, Glutamate NMDA receptor; Grin1/Grin2c; test: Inhibition of recombinant rat GluN1/GluN2C NMDA receptor expressed in xenopus laevis oocytes in presence of glycine and L-glutamate by two-electrode voltage-clamp method; type: cell-based
[18] = biological target: T1, Glutamate NMDA receptor; Grin1/Grin2c (Rattus norvegicus); test: Inhibition of recombinant rat GluN1/GluN2C NMDA receptor expressed in xenopus laevis oocytes in presence of glycine and L-glutamate by measuring maximum response by two-electrode voltage-clamp method relative to control; type: cell-based
[19] = biological target: T5, Ionotropic glutamate receptor NMDA 1/2D (Rattus norvegicus); test: Inhibition of recombinant rat GluN1/GluN2D NMDA receptor expressed in xenopus laevis oocytes at 30 uM in presence of glycine and L-glutamate by measuring maximum response by two-electrode voltage-clamp method relative to control; type: cell-based
[20] = biological target: T2, Glutamate NMDA receptor; Grin1/Grin2b (Rattus norvegicus); test: Inhibition of recombinant rat GluN1/GluN2B NMDA receptor expressed in xenopus laevis oocytes in presence of glycine and L-glutamate by measuring maximum response by two-electrode voltage-clamp method relative to control; type: cell-based
[21] = biological target: T3, Glutamate NMDA receptor; Grin1/Grin2a (Rattus norvegicus); test: Inhibition of recombinant rat GluN1/GluN2A NMDA receptor expressed in xenopus laevis oocytes in presence of glycine and L-glutamate by measuring maximum response by two-electrode voltage-clamp method relative to control; type: cell-based
[22] = biological target: T2, Glutamate NMDA receptor; Grin1/Grin2b (Rattus norvegicus); test: Agonist activity at recombinant rat GluN1/GluN2B NMDA receptor expressed in xenopus laevis oocytes at 3 uM by two-electrode voltage-clamp method relative to control; type: cell-based
[23] = biological target: Ionotropic glutamate receptor NMDA 1/2C (Homo sapiens) (UniProt Q05586+Q14957); test: Agonist activity at GluN1/GluN2C (unknown origin) expressed in xenopus laevis oocytes by measuring maximum response by two-electrode voltage-clamp method relative to glycine; type: cell-based
[24] = biological target: T2, Glutamate NMDA receptor; Grin1/Grin2b (Rattus norvegicus); test: Agonist activity at recombinant rat GluN1/GluN2B NMDA receptor expressed in xenopus laevis oocytes by measuring maximum response by two-electrode voltage-clamp method relative to glycine; type: cell-based; conditions: filed as agonist
[25] = species on record: Rattus norvegicus; test: Agonist activity at recombinant rat GluN1 Y692L mutant receptor expressed in xenopus laevis oocytes in presence of L-glutamate by two-electrode voltage-clamp method; type: cell-based
[26] = species on record: Rattus norvegicus; test: Agonist activity at recombinant rat GluN1 F754L mutant receptor expressed in xenopus laevis oocytes in presence of L-glutamate by two-electrode voltage-clamp method; type: cell-based
[27] = Selectivity ratio of EC50 for wild type GluN1/2C receptor to EC50 for GluN1 S688A/2C mutant receptor expressed in xenopus laevis oocytes; type: cell-based
[28] = Selectivity ratio of EC50 for wild type GluN1/GluN2C receptor to EC50 for GluN1 V689I/2C receptor expressed in xenopus laevis oocytes; type: cell-based
[29] = biological target: T2, Glutamate NMDA receptor; Grin1/Grin2b (Rattus norvegicus); test: Agonist activity at recombinant rat GluN1/GluN2B NMDA receptor expressed in xenopus laevis oocytes at 10 uM by two-electrode voltage-clamp method relative to control; type: cell-based
[30] = species on record: Rattus norvegicus; test: Agonist activity at recombinant rat GluN1 V689I mutant receptor expressed in xenopus laevis oocytes assessed as fold reduction by two-electrode voltage-clamp method; type: cell-based; conditions: filed as agonist
[31] = biological target: T7, Ionotropic glutamate receptor NMDA 1/2D; test: Inhibition of recombinant rat GluN1/GluN2D NMDA receptor expressed in xenopus laevis oocytes in presence of glycine and L-glutamate by two-electrode voltage-clamp method; type: cell-based

SMILES	Rmax [1] [%]	Activity [2] [%]	Rmax [3] [%]	EC50 [4] [nM]	Rmax [5] [%]	EC50 [6] [nM]	EC50 [7] [nM]	Rmax ([5]; filed as partial agonist) [%]	Papp [10] [×10⁻⁶ cm/s]	Papp [12] [×10⁻⁶ cm/s]	further results
N[C@H](CNC(=O)c1ccc(-c2ccccc2C(F)(F)F)s1)C(=O)O	158	< 5	62	88	24	150	200	–	–	–	–
COc1ccccc1-c1ccc(C(=O)NC[C@@H](N)C(=O)O)s1	293	< 5	90	660	24	1280	1290	–	–	–	–
N[C@H](CNC(=O)c1ccc(-c2cccc(F)c2F)s1)C(=O)O	321	< 5	62	930	–	1990	3520	41	–	–	–
N[C@H](CNC(=O)c1cc(Br)c(-c2ccccc2Br)s1)C(=O)O	430	–	58	3	30	18	16	–	7.4	0.9	Ratio EC50 [8]: 6.2; Ratio [9]: 8.2; Activity [11]: < 5%; Ratio EC50 [13]: 5.5; t1/2 [14]: > 2 h
N[C@H](CNC(=O)c1ccc(-c2ccccc2)s1)C(=O)O	326	< 5	69	640	–	2280	3270	43	–	–	IC50 [15]: 1900 nM; IC50 [16]: 2100 nM; IC50 [17]: 3900 nM; Rmax [18]: 395%; Rmax [19]: 20%; Rmax [20]: 3%; Rmax [21]: 137%
N[C@H](CNC(=O)c1ccc(-c2cccc3ccccc23)s1)C(=O)O	116	–	59	133	34	102	303	–	–	–	Activity [22]: < 5%
N[C@H](CNC(=O)c1cc2c(Cl)ccc(Cl)c2[nH]1)C(=O)O	–	–	–	–	–	–	–	–	–	–	Rmax [23]: 38%
Cc1cc(C(=O)NC[C@@H](N)C(=O)O)sc1-c1ccccc1Br	267	–	75	25	30	51	120	–	–	–	Activity [11]: < 5%
NCC(=O)O	100	–	100	–	–	–	–	100	–	–	Rmax [24]: 100%
CC(C)OC(=O)[C@H](N)CNC(=O)c1ccc(-c2ccccc2Br)s1	–	–	–	–	–	–	–	–	89.6	107.4	Ratio [9]: 0.83; t1/2 [14]: 0.367 h
N[C@H](CNC(=O)c1cc(Br)c(-c2ccccc2F)s1)C(=O)O	864	–	54	34	–	210	240	44	2.2	1.6	Activity ([25]; filed as agonist): Active; Compound Shows Reduced Efficacy Compared To Wild-Type Glun1/2C; Activity ([26]; filed as agonist): Active; Compound Shows Reduced Efficacy Compared To Wild-Type Glun1/2C; Ratio EC50 [8]: 6.2; Ratio [9]: 1.4; Ratio EC50 [27]: 1.9; Ratio EC50 [13]: 7.1; t1/2 [14]: > 2 h; Ratio EC50 [28]: 2.6; Activity [29]: < 5%; fold change (FC) [30]: 2
N[C@H](CO)C(=O)O	116	–	102	–	–	–	–	93	–	–	–
COc1cccc(F)c1-c1ccc(C(=O)NC[C@@H](N)C(=O)O)s1	179	–	67	110	29	290	180	–	–	–	Activity [29]: < 5%
COc1ccc(F)cc1-c1ccc(C(=O)NC[C@@H](N)C(=O)O)s1	306	< 5	83	740	23	1070	1450	–	–	–	–
COC(=O)c1ccccc1-c1c2ccc(=N)cc-2oc2cc(N)ccc12.Cl [RHODAMINE123]	–	–	–	–	–	–	–	–	5.7	0.77	Ratio [9]: 7.5
CCc1ccccc1-c1ccc(C(=O)NC[C@@H](N)C(=O)O)s1	234	–	77	41	32	57	81	–	1.4	2	Activity [25]: inactive; Activity [26]: inactive; t1/2 [14]: > 2 h; fold change (FC) [30]: 1.3; Activity [22]: < 5%
N[C@H](CNC(=O)c1ccc(-c2cccc(F)c2)s1)C(=O)O	390	< 5	61	1880	–	3730	5580	42	–	–	–
N[C@H](CNC(=O)c1ccc(-c2ccccc2F)s1)C(=O)O	410	< 5	63	230	–	880	980	45	–	–	–
CCc1ccccc1-c1cccc2[nH]c(C(=O)NC[C@@H](N)C(=O)O)cc12	–	–	–	–	–	–	–	–	7.4	0.81	Ratio [9]: 9.2; t1/2 [14]: > 2 h
N[C@H](CNC(=O)c1ccc(-c2ccccc2Br)s1)C(=O)O	156	< 5	80	38	28	74	72	–	0.88	0.53	Activity [25]: inactive; Activity [26]: inactive; Ratio [9]: 1.6; Ratio EC50 [27]: 1.4; t1/2 [14]: > 2 h; Ratio EC50 [28]: 2.9; fold change (FC) [30]: 1.5
CCc1ccccc1-c1ccc(C(=O)NC[C@@H](N)C(=O)O)o1	–	–	–	–	–	–	–	–	–	–	IC50 [31]: 1300 nM; IC50 [15]: 540 nM; IC50 [16]: 150 nM; IC50 [17]: 1100 nM; Rmax [18]: 65%; Rmax [19]: 7%; Rmax [20]: 2%; Rmax [21]: 77%
